The source of these data is patent US9045517B2, “Glycosylated aminocoumarins and methods of preparing and uses of same” (University College London, priority 2010, dated 2015).

In brackets after ≈: the same amount, converted by molar mass. A value given as a limit tells only on which side of the number the result lay.

Series [1] deals with MiaPaCa2 (pancreatic cancer). The experiment in a line: MTT anti-proliferative assay, MiaPaCa2. In kind it is cell-based. Conditions: Homo sapiens, MIA PaCa-2, MiaPaCa2 cells, 24 h continuous exposure. As to the method:
(§1) The cell number is estimated colorimetrically based on the transformation of the yellow MTT reagent (3-(4,5-Dimethylthiazol-2-yl)-2,5-diphenyltetrazolium bromide) to a purple formazan dye by mitochondrial enzymes.
(§2) Human cell lines derived from ovarian cancer (A2780, ECACC 93112519), lung cancer (A549, ATCC CCL-185), breast cancer (MCF7, ATCC HTB-22), pancreatic cancer (MiaPaCa2, ATCC CRL-1420) and brain cancer (U87MG, ATCC HTB-14), were obtained from the European Collection of Cell Cultures (ECACC, Salisbury, UK). The A2780, A549, MCF7 and MiaPaCa2 cells were grown in Dulbecco's Modified Eagle Medium (DMEM) supplemented with 10% fetal bovine serum (Biosera, UK), 1% L-glutamine and 1% non-essential aminoacids (Gibco, Invitrogen, USA). U87MG cells were grown in Minimal essential medium supplemented with 10% fetal bovine serum (Biosera, UK), 1% L-glutamine, 1% non-essential aminoacids and 1% Sodium piruvate (Gibco, Invitrogen, USA). Cells were grown in a 5% CO2, 95% humidity incubator. […] The compounds were dissolved in methanol at a maximum concentration of 20 mM, and serial decimal dilutions were prepared in methanol. For each compound and each concentration, 5 μl of the methanol solution were added over the cells, growing in 100 μl of cell culture medium per well (n=6). After 24 h of continuous drug exposure, the growth inhibition was determined using the MTT assay (Lancaster Synthesis Ltd, UK). The amount of dye was quantified spectrophotometrically as absorbance at λ=570 nm (ELx808, Bio-Tek Instruments, Inc.). The IC50 values were calculated by a dose-response analysis using the Origin 6.0® software.
(Tetrazolium assays rely on reduction of a dye to a coloured formazan, in cell work by metabolically active cells.)

The subject of series [2] is A549 (lung cancer). The experiment in a line: MTT anti-proliferative assay, A549. The class given is cell-based. The conditions noted are these: Homo sapiens, A549 cells, 24 h continuous exposure. As to the method:
as §1, §2

For series [3], the target named is T1, DNA Gyrase (Escherichia coli, UniProt P0AES6).
T1 construct: purchased
The experiment in a line: DNA gyrase supercoiling assay (relaxed pBR322, agarose gel). The class given is biochemical. The conditions noted are these: DNA Gyrase 1U, relaxed pBR322, 37 C, 1 hr. As to the method: DNA Gyrase (1U) is incubated with relaxed pBR322 (0.5 μg) in a reaction volume of 30 μL at 37 °C for 1 hr in TRIS-HCl (35 mM, pH 7.5), KCl (24 Mm), MgCl2 (4 mM), DTT (2 mM), spermidine (1.8 mM), ATP (1 mM), glycerol (6.5%, w/v), albumin (0.1 mg/mL).
After incubation the mixture was deproteinized with equal volumes of chloroformisoamyl alcohol (24:1) and the end point was determined by separating relaxed and supertwisted plasmid pBR322DNA by agarose gel electrophoresis (0.8% agarose with TBE buffer), running without Ethidium Bromide. After the run the gel is soaked, in tank buffer containing Ethidium Bromide, for 1 and half hours.

For series [4], the system named is Escherichia coli. The experiment in a line: MIC by micro-broth dilution against Escherichia coli, with or without PEI. In kind it is cell-based. As for the experimental part:
Microtitre plates were incubated aerobically at 37° C. and read after one and four days. The concentration range tested was 128 to 0.5 μg/ml. A cell permeabilising agent, polyethylenimine (PEI) was used to assess the influence of cell membrane (and associated structures) as a barrier to novobiocin entry into the cell. Isopropyl β-D-1-thiogalactopyranoside (100 μM) was used to induce β-glycosidase and β-galactosidase expression from plasmids pSsβG and pBCSK, respectively. These enzymes can release the native drugs from the conjugates.

Series [5] has as its system U87MG (brain cancer). The series is described as follows: MTT anti-proliferative assay, U87MG. Conditions: Homo sapiens, U-87 MG, U87MG cells, 24 h continuous exposure. The class given is cell-based. As for the experimental part:
as §1, §2

Series [6] relates to MCF7 (breast cancer). The series is described as follows: MTT anti-proliferative assay, MCF7. The class given is cell-based. Conditions: Homo sapiens, MCF7 cells, 24 h continuous exposure. As for the experimental part:
as §1, §2

Series [7] relates to A2780 (ovarian cancer). The series is described as follows: MTT anti-proliferative assay, A2780. In kind it is cell-based. Conditions: Homo sapiens, A2780 cells, 24 h continuous exposure. As for the experimental part: as §1, §2
A short description of series [8]: Toxicity relative to precursor (no method given). Conditions: versus novobiocin.

For `CO[C@@H]1C(OC(N)=O)C(O)[C@H](Oc2ccc3c(O[C@@H]4O[C@H](CO)[C@H](O)[C@H](O)[C@H]4O)c(NC(=O)c4ccc(O)c(CC=C(C)C)c4)c(=O)oc3c2C)OC1(C)C` (some centres unmarked) [Galactosyl_Novobiocin], the IC50 (in general, the point on the concentration scale where inhibition reaches its midpoint) in series [1] is 30 µM; in series [2] it was 100 µM; in series [5], 30 µM; in series [6], 40 µM; in series [7], 100 µM. Moreover, in series [3], the “MIC in DNA gyrase assay” value was found to be 3 µM (≈ 2.32 µg/mL). The “re-growth on prolonged incubation at concentrations above the MIC” value in series [4] (prolonged incubation up to 4 days) was “did not lead to re-growth”.
Turning to `CO[C@@H]1C(OC(N)=O)C(O)[C@H](Oc2ccc3c(O[C@@H]4OC(CO)[C@@H](O)C(O)C4O)c(NC(=O)c4ccc(O)c(CC=C(C)C)c4)c(=O)oc3c2C)OC1(C)C` (stereo partly drawn) [Glucosyl_Novobiocin, β-4′-O-glucosyl Novobiocin], the IC50 in series [1] is 10 µM; in series [2], 60 µM; in series [5], 20 µM; in series [6], 10 µM; in series [7] it was 130 µM. For the same compound, in series [3], the “MIC in DNA gyrase assay” value is 3 µM (≈ 2.32 µg/mL). Moreover, in series [8], the “toxicity compared with precursor” value is “less toxic than its precursor”.
`CO[C@@H]1[C@@H](OC(N)=O)[C@@H](O)[C@H](Oc2ccc3c(O)c(NC(=O)c4ccc(O)c(CC=C(C)C)c4)c(=O)oc3c2C)OC1(C)C` [Novobiocin, reference compound]: the IC50 in series [1] is 320 µM; in series [2] it was above 1000 µM; in series [5] it was 580 µM; in series [6], above 1000 µM; in series [7], 190 µM. In addition, the “increased activity against Escherichia coli in the presence of PEI” value in series [4] (with polyethylenimine (PEI), independent of β-galactosidase) is recorded as 16-32 fold.
